Assay results: patent US7772241B2, “Variolin derivatives and their use as antitumor agents” (Pharma Mar S.A., priority 2001, dated 2010)
Where two headings read alike, the source gives them in different places.

Legend:
[1] = tested on: HMEC1; experiment: Inhibition of cells growth by colorimetric (SRB) assay, HMEC1
[2] = as above; details: human, HMEC1 cells, LC50 H-MEC-1, SRB assay, 48 hours exposure
[3] = tested on: LNCaP; experiment: Inhibition of cells growth by colorimetric (SRB) assay, LNCaP; details: for GI50 / CC50: Homo sapiens, LNCaP, 48 h
Summary of the method: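 Read-out is sulforhodamine B protein stain (OD 490 nm) after cold TCA fixation, following 48 h continuous exposure to samples spanning 10 to 10^−8 μg/ml.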

With `CSc1nccc(-c2c3cccnc3n3c(N(C(C)=O)C(C)=O)nccc23)n1` [Compound 26] the GI50 ([1]; Homo sapiens, HMEC-1, 48 h, read-out: GI50 H-MEC-1, SRB assay, 48 hours exposure) was 446 nM, the “TGI H-MEC-1” value ([1]; SRB assay, 48 hours exposure, in M (unit assumed)) was 1.22E−06 and the CC50 at 48 h [2] was 8.28 µM. It also gave a GI50 ([3]; read-out: GI50 LN-caP, SRB assay, 48 hours exposure) of 703 nM, a CC50 ([3]; read-out: LC50 LN-caP, SRB assay, 48 hours exposure) of 2.28 µM and a GI50 ([3]; read-out: LN-caP GI50, SRB assay, 48 hours exposure) of 4510 nM. For the same compound, the CC50 ([3]; read-out: LN-caP LC50, SRB assay, 48 hours exposure) was 17.5 µM, the “LN-caP TGI” value ([3]; SRB assay, 48 hours exposure) was 8.89E−06 and the “TGI LN-caP” value ([3]; SRB assay, 48 hours exposure) was 1.27E−06.
